In ChEMBL document CHEMBL1201862, “PubChem BioAssay data set” (2004):
Active and inactive are the calls of the source.

What was measured:
[1] = toxicity to human hepatoma HepG2 cells – cell-based, cherry-picked samples, cytotoxicity control, dose response (AID 1159577); assay type: functional
[2] = P. falciparum Dd2 growth inhibitors, dose response, SYBR Green, cherry-picked samples (AID 1159567); assay type: functional, cell-based
[3] = toxicity to human HepG2 hepatoma cells – cell-based, plate reader, dry powder samples, cytotoxicity control, dose response (AID 1159569); assay type: functional;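 note: inhibitor potency with signal falling toward the positive control level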
[4] = growth inhibition of PfATP4-mutant resistant parasites – NITD609-resistant line, SYBR Green, dry powder, dose response (AID 1159571); assay type: functional, cell-based;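 note: parasites synchronized at ring stage by sorbitol before testing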
[5] = Dd2 malaria parasite growth inhibition potency – SYBR Green, dry powder samples, dose response (AID 1159566); assay type: functional, cell-based;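 note: potency for growth inhibition with lower SYBR green DNA signal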
[6] = growth inhibition of yeast DHODH-expressing 3D7 parasites – SYBR Green, dry powder samples, dose response (AID 1159570); assay type: functional, cell-based;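 note: parasite growth measured after 72 hours of compound exposure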
[7] = decrease of insulin promoter-GFP reporter – imaging, high-content screening, mouse beta cells (AID 1628); assay type: functional; conditions: MIN6
[8] = MIN6 cell viability loss – mouse insulinoma, cytotoxicity control, dose response (AID 2122); assay type: functional;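 note: confirmatory high-throughput counterscreen run to flag cytotoxic compounds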
[9] = target: Cytochrome P450 2C19 (Homo sapiens, UniProt P33261); assay: Cytochrome panel assay with activity outcomes. Panel member name: p450-cyp2c19 Compounds with AC50 equal or less than 10 uM are considered active; assay type: functional; conditions: read-out: AC50
[10] = target: Cytochrome P450 3A4 (Homo sapiens, UniProt P08684);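 note: CYP3A4 tested as one member of a cytochrome P450 panel screen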
[11] = target: T1, Cytochrome P450 1A2 (Homo sapiens, UniProt P05177);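 note: PubChem cytochrome P450 panel assay, CYP1A2 panel member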
T1 sequence (P05177 whole entry): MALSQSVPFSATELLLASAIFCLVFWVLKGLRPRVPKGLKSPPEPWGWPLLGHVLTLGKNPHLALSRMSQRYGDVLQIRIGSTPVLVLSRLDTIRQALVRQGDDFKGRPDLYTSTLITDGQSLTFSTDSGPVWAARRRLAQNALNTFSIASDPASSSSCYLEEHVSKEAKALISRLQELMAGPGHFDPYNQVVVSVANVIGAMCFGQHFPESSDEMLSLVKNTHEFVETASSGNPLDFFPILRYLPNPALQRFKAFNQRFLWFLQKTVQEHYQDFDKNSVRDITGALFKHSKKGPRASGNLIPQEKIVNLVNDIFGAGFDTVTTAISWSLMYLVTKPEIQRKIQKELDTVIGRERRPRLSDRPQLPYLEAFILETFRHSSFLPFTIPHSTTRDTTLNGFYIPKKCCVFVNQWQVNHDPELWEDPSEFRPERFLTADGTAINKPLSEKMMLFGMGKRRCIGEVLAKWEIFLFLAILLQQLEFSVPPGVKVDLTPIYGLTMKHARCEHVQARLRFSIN

[12] = target: Cytochrome P450 2C9 (Homo sapiens, UniProt P11712)
[13] = target: Induced myeloid leukemia cell differentiation protein Mcl-1 (Homo sapiens, UniProt Q07820); assay type: functional
[14] = target: T2, Corticotropin-releasing factor receptor 2/Corticotropin-releasing factor-binding protein (Homo sapiens, UniProt P24387+Q13324); assay: activators of CRF receptor 2 with binding protein – uHTS hits, confirmation (AID 602473); assay type: functional; conditions: read-out: EC50_Mean
T2 sequence (Q13324 whole entry): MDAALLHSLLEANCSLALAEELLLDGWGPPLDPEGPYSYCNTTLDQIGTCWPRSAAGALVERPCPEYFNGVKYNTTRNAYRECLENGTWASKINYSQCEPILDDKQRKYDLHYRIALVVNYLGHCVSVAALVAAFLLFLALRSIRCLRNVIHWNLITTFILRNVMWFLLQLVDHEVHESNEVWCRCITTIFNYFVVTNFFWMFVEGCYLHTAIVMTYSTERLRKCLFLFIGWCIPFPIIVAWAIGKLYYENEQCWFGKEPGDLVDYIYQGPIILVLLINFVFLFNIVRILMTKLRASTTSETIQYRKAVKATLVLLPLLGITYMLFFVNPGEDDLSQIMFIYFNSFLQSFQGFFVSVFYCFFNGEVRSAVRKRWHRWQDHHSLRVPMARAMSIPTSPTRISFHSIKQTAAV
T2 sequence (P24387 whole entry): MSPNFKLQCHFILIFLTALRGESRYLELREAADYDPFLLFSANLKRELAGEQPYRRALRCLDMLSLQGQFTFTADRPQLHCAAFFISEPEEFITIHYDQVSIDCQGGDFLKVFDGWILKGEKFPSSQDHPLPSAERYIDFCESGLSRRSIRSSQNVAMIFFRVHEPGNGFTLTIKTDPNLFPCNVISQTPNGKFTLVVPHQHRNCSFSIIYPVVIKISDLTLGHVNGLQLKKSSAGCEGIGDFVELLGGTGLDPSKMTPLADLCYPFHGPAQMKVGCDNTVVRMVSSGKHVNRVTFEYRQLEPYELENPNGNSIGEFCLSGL

[15] = target: DNA dC->dU-editing enzyme APOBEC-3A (Homo sapiens, UniProt P31941); assay: Dose Response confirmation of small molecule APOBEC3A DNA Deaminase Inhibitors via a fluorescence-based single-stranded DNA deaminase assay. [Related pubchem assays (depositor defined):AID493011, AID493024]; assay type: functional
[16] = system: Streptococcus; assay: GAS UMAA2166 growth inhibition – luminescence, BacTiterGlo, counter-screen for streptokinase expression inhibitor project, dose response (AID 1915); assay type: functional, organism-based;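 note: potency for reduction of bacterial viability or growth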
[17] = target: T3, Streptokinase A (Streptococcus pyogenes serotype M1, UniProt P10520); assay: viability-normalized secreted streptokinase activity reduction – plasminogen activation absorbance, OD405, dose response (AID 1914); assay type: functional, Streptococcus pyogenes M1 GAS;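 note: secreted streptokinase activity via plasminogen activation per viability signal from cell pellet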
T3 sequence (P10520 whole entry): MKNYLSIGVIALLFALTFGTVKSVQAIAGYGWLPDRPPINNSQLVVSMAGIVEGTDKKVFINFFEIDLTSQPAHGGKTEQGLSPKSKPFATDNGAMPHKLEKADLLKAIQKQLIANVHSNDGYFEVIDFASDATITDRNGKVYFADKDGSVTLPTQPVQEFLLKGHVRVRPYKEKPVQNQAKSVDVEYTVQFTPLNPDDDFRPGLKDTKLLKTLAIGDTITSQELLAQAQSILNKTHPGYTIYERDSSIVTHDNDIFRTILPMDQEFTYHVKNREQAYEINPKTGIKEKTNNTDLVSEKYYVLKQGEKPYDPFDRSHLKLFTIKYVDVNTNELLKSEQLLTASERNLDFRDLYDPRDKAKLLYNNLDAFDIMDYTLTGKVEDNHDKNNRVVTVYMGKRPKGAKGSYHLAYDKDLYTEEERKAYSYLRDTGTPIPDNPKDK

[18] = system: Streptococcus sp. 'group A'; assay: Streptococcus pyogenes SK(-)GAS viability under kanamycin – luminescence, BacTiterGlo, confirmation, counter-screen for streptokinase expression inhibitor project, dose response (AID 1900); assay type: functional, organism-based
[19] = target: DNA dC->dU-editing enzyme APOBEC-3G (Homo sapiens, UniProt Q9HC16); assay type: functional;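 note: Dose-response counterscreen measuring inhibition of APOBEC3G DNA deaminase activity, run while confirming APOBEC3A inhibitors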
Sequence of DNA dC->dU-editing enzyme APOBEC-3G (Q9HC16 whole entry): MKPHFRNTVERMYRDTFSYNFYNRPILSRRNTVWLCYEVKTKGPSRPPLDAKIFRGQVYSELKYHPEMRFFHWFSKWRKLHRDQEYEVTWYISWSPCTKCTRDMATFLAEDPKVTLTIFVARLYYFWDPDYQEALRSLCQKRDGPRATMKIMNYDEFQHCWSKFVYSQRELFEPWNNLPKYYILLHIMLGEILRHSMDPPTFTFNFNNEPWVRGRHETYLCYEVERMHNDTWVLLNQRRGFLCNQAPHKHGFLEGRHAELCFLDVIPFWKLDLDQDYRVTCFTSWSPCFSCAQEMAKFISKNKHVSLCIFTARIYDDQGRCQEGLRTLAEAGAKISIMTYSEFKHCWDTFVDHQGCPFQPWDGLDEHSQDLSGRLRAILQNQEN

Sequence of Cytochrome P450 3A4 (P08684 whole entry): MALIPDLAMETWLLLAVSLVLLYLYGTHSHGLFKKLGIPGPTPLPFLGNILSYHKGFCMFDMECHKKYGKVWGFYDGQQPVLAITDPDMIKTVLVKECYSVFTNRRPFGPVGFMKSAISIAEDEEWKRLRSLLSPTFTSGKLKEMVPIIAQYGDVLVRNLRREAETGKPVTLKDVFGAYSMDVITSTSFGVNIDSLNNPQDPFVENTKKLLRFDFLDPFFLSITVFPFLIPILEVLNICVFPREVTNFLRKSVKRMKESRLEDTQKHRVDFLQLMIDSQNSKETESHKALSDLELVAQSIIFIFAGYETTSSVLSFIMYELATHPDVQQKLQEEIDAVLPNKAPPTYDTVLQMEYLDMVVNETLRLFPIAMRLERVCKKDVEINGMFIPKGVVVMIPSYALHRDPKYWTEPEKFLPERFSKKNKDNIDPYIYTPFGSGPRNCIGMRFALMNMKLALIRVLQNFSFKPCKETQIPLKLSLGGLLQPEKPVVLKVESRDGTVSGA
Sequence of DNA dC->dU-editing enzyme APOBEC-3A (P31941 whole entry): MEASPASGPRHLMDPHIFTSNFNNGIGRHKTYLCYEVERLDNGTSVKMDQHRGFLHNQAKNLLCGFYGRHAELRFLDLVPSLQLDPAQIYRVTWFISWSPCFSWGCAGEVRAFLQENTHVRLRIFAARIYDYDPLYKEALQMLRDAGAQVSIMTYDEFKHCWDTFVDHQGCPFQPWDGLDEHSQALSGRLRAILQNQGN
Sequence of Induced myeloid leukemia cell differentiation protein Mcl-1 (Q07820 whole entry): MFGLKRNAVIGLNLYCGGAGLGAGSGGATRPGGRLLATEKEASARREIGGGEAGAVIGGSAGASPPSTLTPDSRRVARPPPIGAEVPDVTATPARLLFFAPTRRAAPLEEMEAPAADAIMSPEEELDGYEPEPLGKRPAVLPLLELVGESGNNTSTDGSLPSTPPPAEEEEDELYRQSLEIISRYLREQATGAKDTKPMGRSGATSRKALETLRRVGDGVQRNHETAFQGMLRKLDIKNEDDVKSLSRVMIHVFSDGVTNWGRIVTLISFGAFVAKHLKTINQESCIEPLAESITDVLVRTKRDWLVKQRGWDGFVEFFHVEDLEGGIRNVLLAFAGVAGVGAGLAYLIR
Sequence of Cytochrome P450 2C9 (P11712 whole entry): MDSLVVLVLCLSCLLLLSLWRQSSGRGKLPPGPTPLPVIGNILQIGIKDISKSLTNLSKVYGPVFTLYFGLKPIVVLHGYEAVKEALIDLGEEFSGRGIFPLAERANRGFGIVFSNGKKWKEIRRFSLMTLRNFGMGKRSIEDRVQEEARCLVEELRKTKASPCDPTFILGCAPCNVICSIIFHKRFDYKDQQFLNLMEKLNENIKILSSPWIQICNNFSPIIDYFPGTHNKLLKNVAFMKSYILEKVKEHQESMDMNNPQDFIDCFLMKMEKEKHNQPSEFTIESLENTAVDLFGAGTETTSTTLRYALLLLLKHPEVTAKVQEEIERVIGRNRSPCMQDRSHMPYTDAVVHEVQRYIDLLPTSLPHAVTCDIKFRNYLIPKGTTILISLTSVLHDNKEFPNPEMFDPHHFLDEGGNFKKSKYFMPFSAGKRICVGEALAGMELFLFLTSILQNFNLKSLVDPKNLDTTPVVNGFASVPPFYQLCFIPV
Sequence of Cytochrome P450 2C19 (P33261 whole entry): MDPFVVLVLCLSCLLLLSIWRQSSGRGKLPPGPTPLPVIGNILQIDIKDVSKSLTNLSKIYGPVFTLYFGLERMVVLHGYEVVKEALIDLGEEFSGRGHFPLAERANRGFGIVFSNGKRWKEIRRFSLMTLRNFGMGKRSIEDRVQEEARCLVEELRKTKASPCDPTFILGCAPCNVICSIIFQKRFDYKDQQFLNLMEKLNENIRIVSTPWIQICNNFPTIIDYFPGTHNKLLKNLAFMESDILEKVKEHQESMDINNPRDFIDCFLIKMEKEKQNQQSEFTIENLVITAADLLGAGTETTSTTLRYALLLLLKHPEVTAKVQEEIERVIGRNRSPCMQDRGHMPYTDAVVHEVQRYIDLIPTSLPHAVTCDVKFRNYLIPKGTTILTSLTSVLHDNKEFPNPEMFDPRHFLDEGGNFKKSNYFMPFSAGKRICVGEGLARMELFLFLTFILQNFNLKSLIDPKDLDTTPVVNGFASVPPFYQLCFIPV

## COc1ccc2c3c([nH]c2c1)[C@@H](CO)N(Cc1ccncc1)CC31CCN(Cc2ccc(-c3ccccn3)cc2)CC1
[1]
  AC50: > 39 µM (inactive)
[2]
  AC50: 0.546 µM (active)
[3]
  AC50: 21.2 µM (active)
[4]
  AC50: 623 nM (active)
[5]
  AC50: 613 nM (active)
[6]
  AC50: 649 nM (active)

## CCOC(=O)c1cnc2cc(Cl)c(OC)cc2c1NCC1CCCO1 (stereo not given)
[7]
  IC50: 2.7 µM (active)
[8]
  IC50: 15 µM (inactive)

## CC(C)(C)C(=O)N1CCN(c2ccc([N+](=O)[O-])c(NCC3CCCO3)c2)CC1 (stereo not given)
[9]
  AC50: 25.1 µM (inconclusive)
[10]
  AC50: inconclusive
[11]
  AC50: 14.1 µM (inconclusive)

## O=[N+]([O-])c1cccnc1N1CCOCC1
[10]
  AC50: inconclusive
[12]
  AC50: 12.6 µM (inconclusive)
[11]
  AC50: 28.2 µM (inconclusive)

## O=C1SC(SCc2ccccc2Cl)=N/C1=C\c1ccc(C(=O)O)cc1
[13]
  IC50: 5.02 µM (active)

## Cc1ccccc1S(=O)(=O)N1[C@H](C#N)[C@@H](c2ccc(C#CC3CCCCC3)cc2)[C@@H]1CO
[1]
  AC50: > 39 µM (inactive)
[2]
  AC50: 6.83 µM (active)

## C=CCn1c(-c2ccc(OC)cc2)nc2ccccc21
[7]
  IC50: 4.04 µM (active)
[8]
  IC50: 4.36 µM (active)
[14]
  EC50: > 53 µM (inactive)

## CC(=O)c1cccc(OC(=O)c2ccc3c(=O)n4c(nc3c2)CCC4)c1
[15]
  IC50: 6.27 µM (active)
[16]
  EC50: 14.4 µM (active)
[17]
  EC50: > 150 µM (not active)
[18]
  EC50: 12.6 µM (active)
[19]
  IC50: 5.35 µM (active)

## CCC(=O)N1[C@H](CO)[C@H](c2ccc(C3=CCCCC3)cc2)[C@H]1CNC1CCCC1
[1]
  AC50: > 42 µM (inactive)
[2]
  AC50: 4.7 µM (active)

## O=C(c1cccc(F)c1)N1CCC2(CC1)CN(c1ccccc1)C2
[10]
  AC50: inconclusive

## CCn1c(SCC(=O)N2CCN(c3ccc(Cl)cc3)CC2)nc2ccccc2c1=O
[15]
  IC50: 2.83 µM (active)
[19]
  IC50: 2.57 µM (active)
